Experimental data published in patent US4576943A, “Pyrazolo[1,5-a]pyrimidines” (American Cyanamid Company, priority 1984, dated 1986).

What was measured:
[1] = Hypotensive activity in spontaneously hypertensive rats; format: in vivo, spontaneously hypertensive rats of the Okamoto strain; conditions: 100 mg/kg by gavage, two doses 24 hours apart, measured at 28 hours after the initial dose; one or two rats
Procedure: The novel compounds of the present invention are active hypotensive agents and were tested for hypotensive activity by the method of P. S. Chan and D. Poorvin, Clinical and Experimental Hypertension, 1 (6), 817-830 (1979). […] One to 3 rats are used per test compound. A rat is dosed by gavage with a test compound suspended in 2% pre-boiled starch at a concentration of 50 mg/ml, at a dose of 100 mg/kg of body weight or less, with 0.9% sodium chloride loading at a dose of 25 ml/kg of body weight. A second identical dose of the test compound, without sodium chloride loading is given 24 hours later. At 28 hours after the initial dose the mean arterial blood pressure is measured by the method of Chan and Poorvin (see above). The procedure is repeated in a second and third rat when necessary. The results of this test on representative compounds of the present invention which were obtained using one or two rats, at a dose of 100 mg/kg of body weight appear below in Table I.

Hypoxic Survival Test = format: in vivo, Royal Hart mice; conditions: for % Survivors: 10% oxygen, 5 minutes
Procedure: Groups of 20 Royal Hart mice (6 weeks of age) are injected intraperitoneally with 10, 50 or 100 mg/kg of test compound 30 minutes prior to placing them in a hypoxic mixture (10% oxygen in 90% […]) and measuring survival after 5 minutes.
A separate group of 20 mice is injected intraperitoneally with saline solution (0.01 cc/g of body weight) and processed as described above.
Still another group of 20 mice is injected intraperitoneally with 0.125 mg/kg of physostigmine and processed as described above.

[2] = tested on: brain-specific receptors (tritiated benzodiazepine binding, P2-synaptosomal fraction of rat whole cortex); assay: Inhibition of the binding of 3H-benzodiazepine to brain-specific receptors of rats; design: species or system Male albino rats (Wistar strain); conditions: 3H-diazepam (1.5 nM) or 3H-flunitrazepam (1.0 nM), pH 7.4, 30 minutes in ice; test concentration not given

## N#Cc1c(N2CCN(c3ccccn3)CC2)nn2c(-c3cccnc3)ccnc12 [7-(3-Pyridinyl)-2-[4-(2-pyridinyl)-1-piperazinyl]pyrazolo[1,5-a]pyrimidine-3-carbonitrile]
[1]
  Mean Arterial Blood Pressure: 143 mm of mercury

## CNC(=O)Oc1ccc2c(c1)[C@]1(C)CCN(C)[C@@H]1N2C [physostigmine, reference compound]
Hypoxic Survival Test; 0.125 mg/kg i.p., 5 minute exposure
  physostigmine treated mice survive: 60-80%

## N#Cc1c(N2CCN(Cc3c(Cl)cccc3Cl)CC2)nn2c(-c3cccnc3)ccnc12 [2-[4-[(2,6-Dichlorophenyl)methyl]-1-piperazinyl]-7-(3-pyridinyl)pyrazolo[1,5-a]pyrimidine-3-carbonitrile]
[1]
  Mean Arterial Blood Pressure: 124 mm of mercury

## N#Cc1c(N2CCN(Cc3c(Cl)cccc3Cl)CC2)nn2c(-c3cccc(C(F)(F)F)c3)ccnc12 [2-[4-[(2,6-Dichlorophenyl)methyl]-1-piperazinyl]-7-[3-(trifluoromethyl)phenyl]pyrazolo[1,5-a]pyrimidine-3-carbonitrile]
[2]
  % Inhibition of the binding of 3H-benzodiazepine: 22%

## N#Cc1c(N2CCN(Cc3ccccc3)CC2)nn2c(-c3ccc(Cl)cc3)ccnc12 [7-(4-Chlorophenyl)-2-[4-(phenylmethyl)-1-piperazinyl]pyrazolo[1,5-a]pyrimidine-3-carbonitrile]
[1]
  Mean Arterial Blood Pressure: 142 mm of mercury

## N#Cc1c(N2CCN(Cc3ccc(Cl)cc3)CC2)nn2c(-c3cccnc3)ccnc12 [2-[4-[(4-Chlorophenyl)methyl]-1-piperazinyl]-7-(3-pyridinyl)pyrazolo[1,5-a]pyrimidine-3-carbonitrile]
[1]
  Mean Arterial Blood Pressure: 137 mm of mercury

## N#Cc1c(N2CCN(CCO)CC2)nn2c(-c3cccnc3)ccnc12 [2-[4-(2-Hydroxyethyl)-1-piperazinyl]-7-(3-pyridinyl)pyrazolo[1,5-a]pyrimidine-3-carbonitrile]
[2]
  % Inhibition of the binding of 3H-benzodiazepine: 25%

## CN1CCN(c2nn3c(-c4cccc(C(F)(F)F)c4)ccnc3c2C#N)CC1 [2-(4-Methyl-1-piperazinyl)-7-[3-(trifluoromethyl)phenyl]pyrazolo[1,5-a]pyrimidine-3-carbonitrile]
[1]
  Mean Arterial Blood Pressure: 139 mm of mercury

## N#Cc1c(N2CCN(Cc3ccccc3)CC2)nn2c(-c3cccnc3)ccnc12 [2-[4-(Phenylmethyl)-1-piperazinyl]-7-(3-pyridinyl)pyrazolo[1,5-a]pyrimidine-3-carbonitrile]
Hypoxic Survival Test; 50 mg/kg i.p.
  % Survivors: 40%
[1]
  Mean Arterial Blood Pressure: 124 mm of mercury

## N#Cc1c(N2CCN(CCO)CC2)nn2c(-c3cccc(C(F)(F)F)c3)ccnc12 [2-[4-(2-Hydroxyethyl)-1-piperazinyl]-7-[3-(trifluoromethyl)phenyl]pyrazolo[1,5-a]pyrimidine-3-carbonitrile]
Hypoxic Survival Test; 10 mg/kg i.p.
  % Survivors: 45%
[1]
  Mean Arterial Blood Pressure: 111 mm of mercury
[2]
  % Inhibition of the binding of 3H-benzodiazepine: 41%

## N#Cc1c(N2CCN(CCCCOc3ccccc3)CC2)nn2c(-c3cccc(C(F)(F)F)c3)ccnc12 [2-[4-(4-Phenoxybutyl)-1-piperazinyl]-7-[3-(trifluoromethyl)phenyl]pyrazolo[1,5-a]pyrimidine-3-carbonitrile]
[1]
  Mean Arterial Blood Pressure: 147 mm of mercury
[2]
  % Inhibition of the binding of 3H-benzodiazepine: 26%

## N#Cc1c(N2CCSCC2)nn2c(-c3cccc(C(F)(F)F)c3)ccnc12 [2-(4-Thiomorpholinyl)-7-[3-(trifluoromethyl)phenyl]pyrazolo[1,5-a]pyrimidine-3-carbonitrile]
[1]
  Mean Arterial Blood Pressure: 148 mm of mercury

## CN(C)C=NC(=O)c1c(N2CCN(Cc3ccccc3)CC2)nn2c(-c3cccc(C(F)(F)F)c3)ccnc12 [N-[(Dimethylamino)methylene]-2-[4-(phenylmethyl)-1-piperazinyl]-7-[3-(trifluoromethyl)phenyl]pyrazolo-[1,5-a]pyrimidine-3-carboxamide]
[1]
  Mean Arterial Blood Pressure: 103 mm of mercury

## N#Cc1c(N2CCN(Cc3ccccc3)CC2)nn2c(-c3cccc(Cl)c3)ccnc12 [7-(3-Chlorophenyl)-2-[4-(phenylmethyl)-1-piperazinyl]pyrazolo[1,5-a]pyrimidine-3-carbonitrile]
Hypoxic Survival Test; 50 mg/kg i.p.
  % Survivors: 47%
[1]
  Mean Arterial Blood Pressure: 147 mm of mercury

## N#Cc1c(N2CCN(Cc3cccc(Cl)c3)CC2)nn2c(-c3cccnc3)ccnc12 [2-[4-[(3-Chlorophenyl)methyl]-1-piperazinyl]-7-(3-pyridinyl)pyrazolo[1,5-a]pyrimidine-3-carbonitrile]
[1]
  Mean Arterial Blood Pressure: 137 mm of mercury
[2]
  % Inhibition of the binding of 3H-benzodiazepine: 12%

## COc1cccc(CN2CCN(c3nn4c(-c5cccc(C(F)(F)F)c5)ccnc4c3C#N)CC2)c1 [2-[4-[(3-Methoxyphenyl)methyl]-1-piperazinyl]-7-[3-(trifluoromethyl)phenyl]pyrazolo[1,5-a]pyrimidine-3-carbonitrile]
[1]
  Mean Arterial Blood Pressure: 140 mm of mercury

## N#Cc1c(N2CCN(Cc3cccc(Cl)c3)CC2)nn2c(-c3cccc(C(F)(F)F)c3)ccnc12 [2-[4-[(3-Chlorophenyl)methyl]-1-piperazinyl]-7-[3-(trifluoromethyl)phenyl]pyrazolo[1,5-a]pyrimidine-3-carbonitrile]
[2]
  % Inhibition of the binding of 3H-benzodiazepine: 33%

## N#Cc1c(N2CCCCC2)nn2c(-c3cccnc3)ccnc12 [2-(1-Piperidinyl)-7-(3-pyridinyl)pyrazolo[1,5-a]pyrimidine-3-carbonitrile]
Hypoxic Survival Test; 100 mg/kg i.p.
  % Survivors: 45%
[1]
  Mean Arterial Blood Pressure: 141 mm of mercury
[2]
  % Inhibition of the binding of 3H-benzodiazepine: 14%

## N#Cc1c(N2CCN(CCCCOc3ccccc3)CC2)nn2c(-c3cccnc3)ccnc12 [2-[4-(4-Phenoxybutyl)-1-piperazinyl]-7-(3-pyridinyl)pyrazolo[1,5-a]pyrimidine-3-carbonitrile]
[1]
  Mean Arterial Blood Pressure: 144 mm of mercury
[2]
  % Inhibition of the binding of 3H-benzodiazepine: 33%

## COc1cccc(CN2CCN(c3nn4c(-c5cccnc5)ccnc4c3C#N)CC2)c1.Cl [2-[4-[(3-Methoxyphenyl)methyl]-1-piperazinyl]-7-(3-pyridinyl)pyrazolo[1,5-a]pyrimidine-3-carbonitrile, monohydrochloride]
[1]
  Mean Arterial Blood Pressure: 138 mm of mercury
[2]
  % Inhibition of the binding of 3H-benzodiazepine: 18%

## Cc1cc(-c2ccncc2)n2nc(N3CCN(Cc4ccccc4)CC3)c(C#N)c2n1 [5-Methyl-2-[4-(phenylmethyl)-1-piperazinyl]-7-(4-pyridinyl)pyrazolo[1,5-a]pyrimidine-3-carbonitrile]
[1]
  Mean Arterial Blood Pressure: 122 mm of mercury

## N#Cc1c(N2CCN(Cc3ccc(Cl)cc3)CC2)nn2c(-c3cccc(C(F)(F)F)c3)ccnc12 [2-[4-[(4-Chlorophenyl)methyl]-1-piperazinyl]-7-[3-(trifluoromethyl)phenyl]pyrazolo[1,5-a]pyrimidine-3-carbonitrile]
[1]
  Mean Arterial Blood Pressure: 127 mm of mercury
[2]
  % Inhibition of the binding of 3H-benzodiazepine: 15%

## NC(=O)c1c(N2CCN(Cc3ccccc3)CC2)nn2c(-c3cccc(C(F)(F)F)c3)ccnc12 [2-[4-(Phenylmethyl)-1-piperazinyl]-7-[3-(trifluoromethyl)phenyl]pyrazolo[1,5-a]pyrimidine-3-carboxamide]
[2]
  % Inhibition of the binding of 3H-benzodiazepine: 14%

## COc1ccc(CN2CCN(c3nn4c(-c5cccc(C(F)(F)F)c5)ccnc4c3C#N)CC2)cc1 [2-[4-[(4-Methoxyphenyl)methyl]-1-piperazinyl]-7-[3-(trifluoromethyl)phenyl]pyrazolo[1,5-a]pyrimidine-3-carbonitrile]
[1]
  Mean Arterial Blood Pressure: 136 mm of mercury
[2]
  % Inhibition of the binding of 3H-benzodiazepine: 18%

## N#Cc1c(N2CCSCC2)nn2c(-c3cccnc3)ccnc12 [7-(3-Pyridinyl)-2-(4-thiomorpholinyl)pyrazolo[1,5-a]pyrimidine-3-carbonitrile]
Hypoxic Survival Test; 100 mg/kg i.p.
  % Survivors: 50%
[1]
  Mean Arterial Blood Pressure: 141 mm of mercury

## N#Cc1c(N2CCC(Cc3ccccc3)CC2)nn2c(-c3cccc(C(F)(F)F)c3)ccnc12 [2-[4-(Phenylmethyl)-1-piperidinyl]-7-[3-(trifluoromethyl)phenyl]pyrazolo[1,5-a]pyrimidine-3-carbonitrile]
[1]
  Mean Arterial Blood Pressure: 142 mm of mercury
[2]
  % Inhibition of the binding of 3H-benzodiazepine: 46%
